Results reported in patent publication US8273543B2, “Regulation of BACE degradation” (The General Hospital Corporation, priority 2006, dated 2012).
Entries after “also recorded” stand apart in the source; their conditions may differ. Peptide text beside a SMILES is read from it. * marks the point of attachment. Cbz = O=C(OCc1ccccc1)*; CH2F = FC*

Key:
BACE [1] = conditions: variety of cell types, including primary neurons; cited from earlier work
GGA3 [2] = assay: Full length GGA3 in primary cortical neurons treated with STS, Western blot; assay type: cell-based; conditions: primary cortical neurons (PCN), STS for 12 hr
Description: FIG. 5b: rat brain samples from the experiment described in FIG. 7. […] FIG. 5c: H4 and primary cortical neurons (PCN) were treated with STS for 12 hr.

APP-C99 = APP-C99 levels during apoptosis, Western blot with WO2 antibody; assay type: cell-based, human; conditions: H4-APP751 cells, apoptosis induced by STS
Excerpt: (§1) Gervais and colleagues (Gervais et al., 1999) proposed that caspase-mediated cleavage of APP at APPD720 was responsible for increased Aβ generation associated with apoptosis. […] The Aβ ELISA measured Aβ1-total using biotinylated 3D6, which specifically recognizes the aspartate in position 1 of Aβ, as a reporter antibody. […] Here, we investigated whether apoptosis-mediated increases in Aβ levels may be due to enhanced cleavage of APP by BACE, the protease responsible for β-secretase cleavage of APP (Vassar et al., 1999). For this purpose, we tested whether apoptosis/caspase activation leads to increased levels of APP-C99, the C-terminal fragment generated by β-secretase cleavage of APP. […]
(§2) H4 human neuroglioma cells expressing APP751 (H4-APP751) and APP-SWE (H4-APPSWE) were grown in DMEM containing 10% FBS, 200 μg/mL G418, 250 μg/mL zeocin, 2 mM L-glutamine, 100 U/ml penicillin, 100 μg/mL streptomycin. […] Densitometry analysis was performed on a Macintosh computer using the public domain NIH Image program (developed at the U.S. National Institutes of Health and available on the Internet at rsb.info.nih.gov/nih-image/) or using a Versadoc Imager and QuantityOne software (BioRad).

BACE mRNA = assay: Northern blot analysis of BACE mRNA; assay type: cell-based, human; conditions: H4-APP751 cells, 6 hr of STS treatment
Description: Total RNA was extracted using TRIZOL (Invitrogen). Northern blot analysis was performed as previously described (Koh et al., 2001). Human cDNA of BACE was labeled with […] (PerkinElmer, Norwalk Conn.) using random hexanucleotide primers (Prime-a-gene labeling system; Promega Madison Wis.).

GGA3 [3] = assay: GGA3 cleavage during apoptosis in H4 cells, Western blot with anti-GGA3 antibody; assay type: cell-based, human; conditions: for cleavage of full length GGA3: H4 cells, STS time course
Description: H4 cells were treated with staurosporine (STS) during time course experiments.
(§3) H4 human neuroglioma cells expressing APP751 (H4-APP751) and APP-SWE (H4-APPSWE) were grown in DMEM containing 10% FBS, 200 μg/mL G418, 250 μg/mL zeocin, 2 mM L-glutamine, 100 U/ml penicillin, 100 μg/mL streptomycin. For the induction of apoptosis, we used staurosporine or etoposide (Calbiochem). For time-course experiments, cells were seeded at a density of 2×10^6 cells per 100 mm dish and treated with STS (1 μM) or etoposide (100 μg/mL). In order to inhibit caspase activation a sister plate of cells was pretreated with zVAD (100 μM, Calbiochem) for 1 hr before STS treatment. At different time points (0, 3, 6, 9, 12, and 24 hr), the cells were scraped, centrifuged, and then lysed in buffer containing 1% NP40. Western blot analysis was performed as previously described (Tesco et al., 2003). Densitometry analysis was performed on a Macintosh computer using the public domain NIH Image program (developed at the U.S. National Institutes of Health and available on the Internet at rsb.info.nih.gov/nih-image/) or using a Versadoc Imager and QuantityOne software (BioRad).

Aβ1-total = conditions: CHO cells, 6 hr treatment; cited from earlier work
BACE [4] = assay: Induction of apoptosis, Western blot of BACE protein levels; assay type: cell-based, human; conditions: H4-APP751 cells
Description: as §3

caspase 3 = assay: Caspase 3 activation, Western blot with anti-caspase 3 active fragment antibody; assay type: cell-based, human; conditions: H4-APP751 cells, STS treatment
Excerpt: as §1, §2

TACE and APP = assay: Cycloheximide degradation time-course, TACE and APP; assay type: cell-based, human; conditions: H4-APP751 cells, STS+CHX vs CHX (40 μg/ml) only
Description: (§4) H4-APP751 cells were treated with CHX (40 μg/ml) only or STS (1 μM)+CHX during a 30 hr time-course. Lysates from each time point were immunoblotted with the specific antibodies, anti-BACE, anti-TACE, and the anti-APP antibody […].

BACE [5] = assay: Cycloheximide degradation time-course, BACE; assay type: cell-based, human; conditions: H4-APP751 cells, STS+CHX vs CHX (40 μg/ml) only
Description: as §4

[6] = test system: ischemic and excitotoxic neuronal damage; conditions: intracerebroventricular injection before ischemia and immediately after reperfusion; cited from earlier work
BACE [7] = conditions: caspase inhibition; cited from earlier work
BACE [8] = assay: Co-transfection of GGA3DN with myc-tagged BACE in H4-APP751 cells, BACE levels; assay type: cell-based, human
Excerpt: To address this possibility we engineered a HA-tagged GGA3 N-terminal fragment 1-313 mimicking the N-terminal caspase-derived fragment generated by cleavage at D313 (GGA3DN). […] During apoptosis, however, caspase-mediated cleavage of GGA3 results not only in the production of GGA3DN but also the degradation of GGA3.

Aβ40 = assay: Secreted Aβ40 in conditioned media, sandwich ELISA; assay type: cell-based, human; conditions: H4-APP751 cells expressing GGA3DN
Description: Secreted Aβ40 was measured in the conditioned media using an Aβ40-specific sandwich ELISA (BioSource International, Camarillo, Calif.). Aβ concentration was normalized against the concentration of protein in the cell lysates.
H4 cells stably expressing wild-type APP-751 or APP containing the Swedish FAD mutation (APPSwe) were transfected with 200 nM siGGA3 (ID #36847, Ambion, Austin Tex.) or a 19 bp scrambled sequence was used as negative control for siRNA (Silencer Negative control #1 siRNA, Ambion) using oligofectamine following manufacturer's instructions (Invitrogen). 72 hr later, GGA3 levels were determined by WB analysis with anti-GGA3 antibody (Transduction Laboratories). At the same time point, a sister plate of the same cells was co-transfected with myc-tagged BACE plasmid and siGGA3 or siNeg. After 48 hr the media was replaced. Cells and media were collected after 72 hr following the co-transfection.

GGA3 [9] = assay: In vitro translation and recombinant caspase 3 cleavage assay; assay type: biochemical, human; conditions: recombinant caspase 3
Description: The HA-GGA3 pcDNA4 plasmid was a generous gift from Dr. Waguri. GGA3 was in vitro translated (IVT) in the presence of [^35S]-labeled methionine using TNT Quick Coupled Transcription/Translation Systems as indicated by the manufacturer (Promega, Madison Wis.). 5 μL of IVT reaction were incubated with or without 200 ng of recombinant caspase 3 (Pharmingen, San Diego, Calif.) in caspase reaction buffer (sucrose 20%, NaCl 100 mM, HEPES (pH 7.4) 20 mM, CHAPS 0.1%, DTT 10 mM, EDTA 1 mM) at 37° for 2 hr. The reactions were separated by SDS-page (4-12% Bis-tricine gel with MES running buffer, Invitrogen Carlsbad, Calif.). The gel was fixed, dried and exposed to a phosphorimager screen. The images were acquired with a FX phosphorimager (Bio-Rad, Hercules Calif.). GGA3 in vitro translation was also performed in the presence of cold methionine. Then, 5 μL of IVT reaction were incubated with or without 200 ng of recombinant caspase 3 overnight at 37°. The reactions were separated by SDS-page. In order to better separate the bands generated by caspase 3 cleavage we used 12% Bis-tricine gel and MOPS running buffer (Invitrogen). Then, the proteins were transferred to PVDF membrane and WB analysis with anti-GGA3 antibody was performed.

Cl.N [NH4Cl]
accumulation of endogenous and ectopically expressed BACE (BACE [1]): lead to accumulation

CN[C@@H]1C[C@H]2O[C@@](C)([C@@H]1OC)n1c3ccccc3c3c4c(c5c6ccccc6n2c5c31)C(=O)NC4 [STS, staurosporine]
full length GGA3 (GGA3 [2]): decrease in full length GGA3
levels of APP-C99 (APP-C99): increased levels of C99
BACE mRNA levels (BACE mRNA): virtually undetectable
cleavage of full length GGA3 (GGA3 [3]): cleaved into two major fragments
cleavage of full length GGA3 (GGA3 [3]; listed as staurosporine): cleaved in two major fragments
Aβ1-total production compared to untreated cells (Aβ1-total): significantly increased
increase in BACE protein levels (BACE [4]; 12 hr of STS treatment): ~6 fold
increase in BACE protein levels (BACE [4]; 24 hr of STS treatment): ~9 fold
earliest time of caspase 3 activation (caspase 3): 6 h
degradation of TACE and APP (TACE and APP): unchanged
degradation of BACE (BACE [5]): degradation of BACE was decreased

CCN(CC)CCCC(C)Nc1ccnc2cc(Cl)ccc12 (centres unmarked) [chloroquine]
accumulation of endogenous and ectopically expressed BACE (BACE [1]): lead to accumulation

COc1cc([C@@H]2c3cc4c(cc3[C@@H](O[C@@H]3O[C@@H]5CO[C@@H](C)O[C@H]5[C@H](O)[C@H]3O)[C@H]3COC(=O)[C@H]23)OCO4)cc(OC)c1O [etoposide]
BACE protein levels (BACE [4]; apoptosis induced by etoposide): increased BACE protein levels

COC(=O)C[C@H](NC(=O)[C@H](C)NC(=O)[C@@H](NC(=O)OCc1ccccc1)C(C)C)C(=O)CF [z-VAD.FMK] (Cbz-Val-Ala-Asp(OMe)-CH2F)
ischemic and excitotoxic neuronal damage [6]: significantly reduces

COC(=O)CC[C@H](NC(=O)[C@H](CC(=O)OC)NC(=O)OCc1ccccc1)C(=O)N[C@H](C(=O)N[C@@H](CC(=O)OC)C(=O)CF)C(C)C [zDEVD.FMK]
ischemic and excitotoxic neuronal damage [6]: significantly reduces

CC(NC(=O)C(NC(=O)OCc1ccccc1)C(C)C)C(=O)NC(CC(=O)O)C(=O)CF (stereo not drawn) [zVAD] (Cbz-Val-Ala-Asp-CH2F; configuration not given here)
cleavage of GGA3 during apoptosis (GGA3 [3]; apoptotic H4 cells, caspase inhibition): inhibited; also recorded: prevented
increase in Aβ production during apoptosis (BACE [7]): prevent
stabilization of BACE during apoptosis (BACE [7]): prevent the stabilization of BACE
BACE accumulation during STS or etoposide treatment (BACE [4]; caspase inhibition): prevented BACE accumulation

B1: GGA3DN: HA-tagged GGA3 N-terminal fragment 1-313 mimicking the N-terminal caspase-derived fragment generated by cleavage at D313 (protein, UniProt Q9NZ52 1-313, looked up, fragment)
chain: MAEAEGESLESWLNKATNPSNRQEDWEYIIGFCDQINKELEGPQIAVRLLAHKIQSPQEWEALQALTVLEACMKNCGRRFHNEVGKFRFLNELIKVVSPKYLGDRVSEKVKTKVIELLYSWTMALPEEAKIKDAYHMLKRQGIVQSDPPIPVDRTLIPSPPPRPKNPVFDDEEKSKLLAKLLKSKNPDDLQEANKLIKSMVKEDEARIQKVTKRLHTLEEVNNNVRLLSEMLLHYSQEDSSDGDRELMKELFDQCENKRRTLFKLASETEDNDNSLGDILQASDNLSRVINSYKTIIEGQVINGEVATLTLPD
modifications: HA tag
notes: HA-tagged GGA3 N-terminal fragment 1-313 mimicking the N-terminal caspase-derived fragment generated by cleavage at D313
BACE levels compared to vector alone or GGA3 (BACE [8]): BACE levels were increased
levels of secreted Aβ40 (Aβ40): the increase was not statistically significant

B2: recombinant caspase 3: Recombinant caspase 3 purchased from Pharmingen (protein)
chain: SGISLDNSYKMDYPEMGLCIIINNKNFHKSTGMTSRSGTDVDAANLRETFRNLKYEVRNKNDLTREEIVELMRDVSKEDHSKRSSFVCVLLSHGEEGIIFGTNGPVDLKKITNFFRGDRCRSLTGKPKLFIIQACRGTELDCGIETDSGVDDDMACHKIPVEADFLYAYSTAPGYYSWRNSKDGSWFIQSLCAMLKQYADKLEFMHILTRVNRKVATEFESFSFDATFHAKKQIPCIVSMLTKELYFYH
cleavage of in vitro translated GGA3 (cold methionine), Western blot (GGA3 [9]): three major fragments
